From patent US8207176B2 (Glaxo Group Limited, priority 2005, dated 2012)
Structures can show the parent of a compound that is named as a salt.

Key:
[1] = target: T1, Recombinant human p38α (MKK6-activated) (Homo sapiens, UniProt Q16539); assay: Time-resolved fluorescence resonance energy transfer (TR-FRET) kinase assay (standard or low volume); assay type: biochemical; design: key: Compounds are considered active in this assay if they demonstrate a pIC50 of greater than 4.6 up to about a pIC50 of greater than 10.0; details: MKK6-activated p38α 100 pM, GST-ATF2 400 nM, 120 minutes at room temperature; either assay format
T1 construct: His; made in house
Experimental: It is noted that there are two assay formats shown above for the Fluorescence anisotropy kinase binding assay. The only difference between these two assays is the volume used and the plate type. […] The results described herein may have been performed in either assay format and are not differentiated as to which. […] TR-FRET Assay Time-Resolved Fluorescence Resonance Energy Transfer Kinase Standard Assay Recombinant human p38α was expressed as a His-tagged protein. To activate this protein, 3 μM unactivated p38α was incubated in 200 mM Hepes pH 7.4, 625 mM NaCl, 1 mM DTT with 27 nM active MKK6 (Upstate), 1 mM ATP and 10 mM MgCl2 The activity of the MKK6-activated p38α was assessed using a time-resolved fluorescence resonance energy transfer (TR-FRET) assay. Biotinylated-GST-ATF2 (residues 19-96, 400 nM final), ATP ([…]) and MgCl2 (5 mM final) in assay buffer (40 mM HEPES pH 7.4, 1 mM DTT) were added to wells containing 1 ul of various concentrations of compound or DMSO vehicle (3% final) in NUNC 384 well black plate. The reaction was initiated by the addition of MKK6-activated p38 (100 pM final) to give a total volume of 30 ul. The reaction was incubated for 120 minutes at room temperature, then terminated by the addition of 15 μl of 100 mM EDTA pH 7.4. Detection reagent (15 μl) in buffer (100 mM HEPES pH 7.4, 150 mM NaCl, 0.1% w/v BSA, 1 mM DTT) containing antiphosphothreonine-ATF2-71 polyclonal antibody (Cell Signalling Technology, Beverly Mass., USA) labelled with W-1024 europium chelate (Wallac OY, Turku, Finland), and APC-labelled streptavidin (Prozyme, San Leandro, Calif., USA) was added and the reaction was further incubated for 60 minutes at room temperature. The degree of phosphorylation of GST-ATF2 was measured using a Packard Discovery plate reader (Perkin-Elmer Life Sciences, Pangbourne, UK) as a ratio of specific 665 nm energy transfer signal to reference europium 620 nm signal. Time-Resolved Fluorescence Resonance Energy Transfer Kinase Low Volume Assay Recombinant human p38α was expressed as a His-tagged protein. To activate this protein, 3 μM unactivated p38α was incubated in 200 mM Hepes pH7.4, 625 mM NaCl, 1 mM DTT with 27 nM active MKK6 (Upstate), 1 mM ATP and 10 mM MgCl2 The activity of the MKK6-activated p38α was assessed using a time-resolved fluorescence resonance energy transfer (TR-FRET) assay. Biotinylated-GST-ATF2 (residues 19-96, 400 nM final), ATP (125 μM final) and MgCl2 ([…]) in assay buffer (40 mM HEPES pH 7.4, 1 mM DTT) were added to wells containing 0.1 μl of various concentrations of compound or DMSO vehicle (1.7% final) in Greiner low volume 384 well black plate. The reaction was initiated by the addition of MKK6-activated p38α (100 pM final) to give a total volume of 6 μl. The reaction was incubated for 120 minutes at room temperature, then terminated by the addition of 3 μl of detection reagent in buffer (100 mM HEPES pH 7.4, 150 mM NaCl, 0.1% w/v BSA, 1 mM DTT, 100 mM EDTA) containing antiphosphothreonine-ATF2-71 polyclonal antibody (Cell Signalling Technology, Beverly Mass., USA) labelled with W-1024 europium chelate (Wallac OY, Turku, Finland), and APC-labelled streptavidin (Prozyme, San Leandro, Calif., USA). The reaction was further incubated for 60 minutes at room temperature. The degree of phosphorylation of GST-ATF2 was measured using a BMG Rubystar plate reader (BMG, UK) as a ratio of specific 665 nm energy transfer signal to reference europium 620 nm signal. It is noted that there are two assay formats shown above for the Time-resolved fluorescence resonance energy transfer kinase assay. The only difference between these two assays is the volume used and the plate type. […] The results described herein may have been performed in either assay format and are not differentiated as to which. […] For purposes herein the HTRF assay and the Fluorescence anisotropy kinase binding assay: […]

[2] = tested on: influx of neutrophils to the lung in LPS-challenged rats; assay: Rat LPS neutrophilia model; assay type: in vivo; details: intratracheal, LPS aerosol 100 ug/ml 15 min, lavage 4 hours later, in at least one of the range of conditions tested, significant p<0.05, nonsignificant p>0.05
Method in brief: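 Compound was given intratracheally (200 ul, suspension or dry powder) 15 min–24 hours before a 15 min aerosol of LPS (100 ug/ml). Bronchoalveolar lavage was taken 4 hours after challenge for differential cell counts. Values are % inhibition of neutrophils versus no-compound controls at a given concentration and pretreat time.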

T1 sequence (Q16539 whole entry): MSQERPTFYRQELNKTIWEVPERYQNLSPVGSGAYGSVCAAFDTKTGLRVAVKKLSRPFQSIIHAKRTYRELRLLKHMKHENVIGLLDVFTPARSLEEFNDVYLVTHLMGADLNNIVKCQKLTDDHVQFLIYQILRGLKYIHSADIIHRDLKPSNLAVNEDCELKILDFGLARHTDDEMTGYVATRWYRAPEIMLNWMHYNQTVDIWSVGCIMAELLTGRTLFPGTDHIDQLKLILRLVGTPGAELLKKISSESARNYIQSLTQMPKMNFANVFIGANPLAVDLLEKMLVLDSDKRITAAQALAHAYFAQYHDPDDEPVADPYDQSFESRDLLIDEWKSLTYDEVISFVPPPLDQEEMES

Compound | pIC50, reported as active [1] | inhibition of neutrophilia (neutrophil levels in lung lavage relative to no compound controls) [2]
Cc1ccc(C(=O)O)cc1-c1nc(N2CCC(N3CCC(C)CC3)CC2)nc2c1ccc(=O)n2-c1c(F)cccc1F [163(b), 3-[8-(2,6-difluorophenyl)-2-(4-methyl-1,4′-bipiperidin-1′-yl)-7-oxo-7,8-dihydropyrido[2,3-d]pyrimidin-4-yl]-4-methylbenzoic acid] | active | –
Cc1ccc(NC(=O)c2ccc(Cl)nc2)cc1-c1nc(N2CCC(N)CC2)nc2c1ccc(=O)n2-c1c(F)cccc1F [Example 15, N-{3-[2-(4-amino-1-piperidinyl)-8-(2,6-difluorophenyl)-7-oxo-7,8-dihydropyrido[2,3-d]pyrimidin-4-yl]-4-methylphenyl}-6-chloro-3-pyridinecarboxamide] | active | –
CCN(CC)CCCNc1nc(-c2cc(C(=O)NC(C)C)ccc2C)c2ccc(=O)n(-c3c(F)cccc3F)c2n1 [118(b), 3-[2-{[3-(diethylamino)propyl]amino}-8-(2,6-difluorophenyl)-7-oxo-7,8-dihydropyrido[2,3-d]pyrimidin-4-yl]-4-methyl-N-(1-methylethyl)benzamide] | active | –
CNC1CCN(c2nc(-c3cc(C(=O)Nc4ccc(F)cc4)ccc3C)c3ccc(=O)n(-c4c(F)cccc4F)c3n2)CC1 [114(b), 3-{8-(2,6-difluorophenyl)-2-[4-(methylamino)-1-piperidinyl]-7-oxo-7,8-dihydropyrido[2,3-d]pyrimidin-4-yl}-N-(4-fluorophenyl)-4-methylbenzamide] | active | –
CCCNC(=O)c1ccc(-c2nc(NCCCN(CC)CC)nc3c2ccc(=O)n3-c2c(F)cccc2F)cc1 [188(b), 4-[2-{[3-(diethylamino)propyl]amino}-8-(2,6-difluorophenyl)-7-oxo-7,8-dihydropyrido[2,3-d]pyrimidin-4-yl]-N-propylbenzamide] | active | –
Cc1ccc(C(=O)NC2CC2)cc1-c1nc(NC(CO)CO)nc2c1ccc(=O)n2-c1c(F)cccc1F [Example 36, N-cyclopropyl-3-(8-(2,6-difluorophenyl)-2-{[2-hydroxy-1-(hydroxymethyl)ethyl]-amino}-7-oxo-7,8-dihydropyrido[2,3-d]pyrimidin-4-yl)-4-methylbenzamide] | active | –
CCN(CC)CCCNc1nc(-c2cc(C(=O)NC(C)C)cc(F)c2C)c2ccc(=O)n(-c3c(F)cccc3F)c2n1 [179(c), 3-[2-{[3-(diethylamino)propyl]amino}-8-(2,6-difluorophenyl)-7-oxo-7,8-dihydropyrido[2,3-d]pyrimidin-4-yl]-5-fluoro-4-methyl-N-(1-methylethyl)benzamide] | active | –
Cc1ccc(C(=O)NC(C)C)cc1-c1nc(NCc2ncc[nH]2)nc2c1ccc(=O)n2-c1c(F)cccc1F [Example 74, 3-{8-(2,6-difluorophenyl)-2-[(1H-imidazol-2-ylmethyl)amino]-7-oxo-7,8-dihydropyrido[2,3-d]pyrimidin-4-yl}-4-methyl-N-(1-methylethyl)benzamide] | active | –
Cc1ccc(NC(=O)c2cccs2)cc1-c1nc(NC2CC(C)(C)NC(C)(C)C2)nc2c1ccc(=O)n2-c1c(F)cccc1F [Example 9, N-(3-{8-(2,6-difluorophenyl)-7-oxo-2-[(2,2,6,6-tetramethyl-4-piperidinyl)amino]-7,8-dihydropyrido[2,3-d]pyrimidin-4-yl}-4-methylphenyl)-2-thiophenecarboxamide] | active | –
CCN(CC)CCCNc1nc(-c2cc(C(=O)O)ccc2C)c2ccc(=O)n(-c3c(F)cccc3F)c2n1 [118(a), 3-[2-{[3-(diethylamino)propyl]amino}-8-(2,6-difluorophenyl)-7-oxo-7,8-dihydropyrido[2,3-d]-pyrimidin-4-yl]-4-methylbenzoic acid] | active | –
CCN(CC)CCCNc1nc(-c2cccc(C(=O)Nc3nccs3)c2C)c2ccc(=O)n(-c3c(F)cccc3F)c2n1 [150(d), 3-[2-{[3-(diethylamino)propyl]amino}-8-(2,6-difluorophenyl)-7-oxo-7,8-dihydropyrido[2,3-d]pyrimidin-4-yl]-2-methyl-N-1,3-thiazol-2-ylbenzamide] | active | –
CCN(CC)CCCNc1nc(-c2cc(C(=O)O)cc(F)c2C)c2ccc(=O)n(-c3c(F)cccc3F)c2n1 [179(b), 3-[2-{[3-(diethylamino)propyl]amino}-8-(2,6-difluorophenyl)-7-oxo-7,8-dihydropyrido[2,3-d]pyrimidin-4-yl]-5-fluoro-4-methylbenzoic acid trifluoroacetate] | active | –
CCN(CC)CCCNc1nc(-c2cccc(C(=O)O)c2)c2ccc(=O)n(-c3c(F)cccc3F)c2n1 [193(a), 3-[2-{[3-(diethylamino)propyl]amino}-8-(2,6-difluorophenyl)-7-oxo-7,8-dihydropyrido[2,3-d]pyrimidin-4-yl]benzoic acid] | active | –
Cc1ccc(C(=O)NC2CCCC2)cc1-c1nc(N2CCC(N3CCC(C)CC3)CC2)nc2c1ccc(=O)n2-c1c(F)cccc1F [Example 169, N-cyclopentyl-3-[8-(2,6-difluorophenyl)-2-(4-methyl-1,4′-bipiperidin-1′-yl)-7-oxo-7,8-dihydropyrido[2,3-d]pyrimidin-4-yl]-4-methylbenzamide] | – | statistically nonsignificant inhibition
Cc1ccc(NC(=O)c2cccs2)cc1-c1nc(NCc2ncc[nH]2)nc2c1ccc(=O)n2-c1c(F)cccc1F [Example 10, N-(3-{8-(2,6-difluorophenyl)-2-[(1H-imidazol-2-ylmethyl)amino]-7-oxo-7,8-dihydropyrido[2,3-d]pyrimidin-4-yl}-4-methylphenyl)-2-thiophenecarboxamide] | active | –
Cc1ccc(C(=O)NC(C)C)cc1-c1nc(N2CCC(N)CC2)nc2c1ccc(=O)n2-c1c(F)cccc1F [Example 68, 3-[2-(4-amino-1-piperidinyl)-8-(2,6-difluorophenyl)-7-oxo-7,8-dihydropyrido[2,3-d]pyrimidin-4-yl]-4-methyl-N-(1-methylethyl)benzamide] | – | statistically significant inhibition
CCN(CC)CCCNc1nc(-c2cc(C(=O)NC3CCC3)ccc2C)c2ccc(=O)n(-c3c(F)cccc3F)c2n1 [Example 137, N-cyclobutyl-3-[2-{[3-(diethylamino)propyl]amino}-8-(2,6-difluorophenyl)-7-oxo-7,8-dihydropyrido[2,3-d]pyrimidin-4-yl]-4-methylbenzamide trifluoroacetate] | – | statistically significant inhibition
